Patent publication US20110172193A1, “PRO-DRUGS OF (E)-7-(3-(2-AMINO-1-FLUOROETHYLIDENE)PIPERIDIN-1-YL)-1-CYCLOPROPYL-6-FLUORO-8-METHOXY-4-OXO-1,4-DIHYDROQUINOLINE-3-CARBOXYLIC ACID” (priority 2010, published 2011)
Like-named read-outs stand apart in the source and are kept apart here.

What was measured:
[1] = Aqueous solubility, modified procedure (saturated solutions, RP-HPLC); format: physicochemical; conditions: thermodynamic from solid, 100 mM phosphate buffer
Experimental: In these cases, the samples were targeted at a pH of 4 and 7 and were measured exclusively using 100 mM phosphate buffers. For both pH's, measured samples were initially prepared at ˜3 mg/ml and ˜10 mg/ml concentrations and for samples that dissolved rapidly, additional compound was added to the solution until saturated solutions were obtained.

[2] = In vitro bioconversion of pro-drug to parent drug in mouse blood, plasma, liver and kidney extract; format: in vitro ADME; conditions: for Peak Area of pro-drug: 37° C. heating block
Experimental: Compound concentrations were normalized to parent drug content by multiplying by a ratio of the relative molecular weights. Time 0 (minute) samples were prepared by immediately diluting with an equal volume of acetonitrile, vortexing, and transferring the samples to ice. […] Representative compounds of the present invention and the parent compound were analyzed by reversed-phase HPLC using an Agilent 1100 system. […] The solvent flow rate was 1 mL/min, and the column temperature was 40° C. Compound and parent peak identification was by diode array detection, monitored at 300 nm Conversion of the compounds (prodrugs) to parent drug was estimated by peak areas (A300 nm, mAU) of the respective agents. Mouse whole blood and plasma were collected from Swiss Webster mice, and stored at 4° C. until use (within 48 hours). […] For these experiments, fresh whole mouse livers or kidneys were homogenized for approximately 30 seconds (Omni-Tip™ disposable homogenizer tip) in 1 mL sterile saline and immediately stored on ice. Crude extracts (non-centrifuged) were incubated with the test compound or parent (20 μg/mL) and processed as described above.

[3] = In vitro bioconversion of pro-drug to parent drug in human blood and plasma; format: in vitro ADME; conditions: for Peak Area of pro-drug: 37° C.; for Conversion to the parent compound (summary in words): human whole blood and plasma
Experimental: Compounds #1, #4, #6, #15, and #16, as well as the parent drug [(E)-7-(3-(2-amino-1-fluoroethylidene)piperidin-1-yl)-1-cyclopropyl-6-fluoro-8-methoxy-4-oxo-1,4-dihydroquinoline-3-carboxylic acid] (the compound of formula (M)) were dissolved to 1 mg/mL, and diluted to 20 ng/mL in fresh, chilled (4° C.) human or mouse whole blood or plasma, or kidney and liver extract (prepared from the respective fresh mouse organs as described below). Compound concentrations were normalized to parent drug content by multiplying by a ratio of the relative molecular weights. Time 0 (minute) samples were prepared by immediately diluting with an equal volume of acetonitrile, vortexing, and transferring the samples to ice. For additional time points, samples were placed in an incubator (Tables 4 and 5), or in a heating block (Tables 6-12) at 37° C. for the indicated time, then immediately vortexed with an equal volume of acetonitrile and placed on ice. Samples were centrifuged and further diluted with an equal volume of water to a final concentration of 25% acetonitrile prior to analysis by HPLC; diluted samples were retained in the cooled (4° C.) HPLC sample injection chamber pending injection.
Representative compounds of the present invention and the parent compound were analyzed by reversed-phase HPLC using an Agilent 1100 system. Samples were injected onto a Zorbax SB-C18 column (3.5 μM, 4.6×150 mm) with a guard cartridge, and developed on a gradient of 15% aqueous acetonitrile in 0.1% trifluoroacetic acid to 85% aqueous acetonitrile in 0.1% trifluoroacetic acid over 10 minutes. The solvent flow rate was 1 mL/min, and the column temperature was 40° C. Compound and parent peak identification was by diode array detection, monitored at 300 nm Conversion of the compounds (prodrugs) to parent drug was estimated by peak areas (A300 nm, mAU) of the respective agents.
For studies with Compounds #1, #4 and #6 (with results as listed in Tables 8, 9 and 10), fresh human whole blood and plasma samples were purchased from BioChemed Services, shipped in Styrofoam coolers maintained with frozen cold packs, and used within 48 hours of receipt. For studies with Compounds #15 and #16 (with results as listed in Tables 11 and 12), blood was drawn from volunteers and whole blood samples and isolated plasma prepared and immediately placed on ice. Whole blood and plasma samples were maintained at 4° C. and used within approximately 30 hours.

[4] = system: Staphylococcus aureus (OC8525), a methicillin-resistant strain (MRSA); experiment: In vivo efficacy in a mouse systemic infection model; conditions: Staphylococcus aureus, 72 h, Swiss Webster mice infected i.p. with MRSA, 3 day survival, normalized to parent content
Experimental: Female Swiss Webster mice weighing between 20-25 g were infected intraperitoneally with approximately 5×10^5 colony forming units (CFU) Staphylococcus aureus (OC8525), a methicillin-resistant strain (MRSA), in 7% mucin. One hour later, the animals were given the test compound intravenously or orally in a dose volume of 0.2 mL. Each animal test group consisted of eight animals. The test compounds were prepared immediately before dosing in 5% dextrose in water (D5W) and diluted further in D5W for i.v. and p.o. administration. The mice were observed over a three day period and ED50 values were calculated from the resulting % survival curves (see Table 13, below). The measured ED50 values were normalized to the content of (E)-7-(3-(2-amino-1-fluoroethylidene)piperidin-1-yl)-1-cyclopropyl-6-fluoro-8-methoxy-4-oxo-1,4-dihydroquinoline-3-carboxylic acid. For some compounds, in vivo efficacy was determined by testing a group of eight mice at a single dose level only. In these cases, the data presented in Table 13, below are reported as percent survival at the designated dose.

Rat pharmacokinetics = format: in vivo, Sprague-Dawley rats; conditions: in vivo, iv
Experimental: Male Sprague-Dawley rats (n=4) were fasted overnight, then dosed intravenously (IV) with a 1 mg/mL solution of a compound of the present invention (prodrug) or parent (compound of formula (M)) in 20% hydroxypropyl-β-cyclodextrin at 2 mg/kg. Blood samples were collected up to 24 hours post dose into tubes containing an anticoagulant. Blood samples were centrifuged for cell removal, and 100 μL plasma was transferred to a clean vial, placed on dry ice, and stored in a −70° C. freezer prior to analysis.
Plasma samples were prepared as follows. Two volumes of acetonitrile containing formic acid and internal standard were added to one volume of plasma to precipitate proteins. Samples were centrifuged (3000 g for 5 min) and supernatant removed for analysis by LC-MS-MS. Calibration standards were prepared by adding appropriate volumes of stock solution directly into plasma and treated identically to collected plasma samples. LC-MS-MS analysis was performed utilizing multiple reaction monitoring for detection of characteristic ions for the test compounds (pro-drugs), parent (compound of formula (M)) and internal standard.
Plasma concentrations were measured as described above to determine a concentration vs time profile. The area under the plasma concentration vs time curve (AUC) was calculated using the linear trapezoidal method. Fitting of the data to obtain pharmacokinetic parameters was carried out using non-compartmental analysis, with results as listed in Table 14, below. The term “NA” means the data was not available.

[5] = pH 4, aqueous buffer, read-out: Aqueous Solubility pH~4
[6] = pH 7, aqueous buffer, read-out: Aqueous Solubility pH~7
[7] = fresh human blood (volunteers), 0 min
[8] = fresh human blood (volunteers), 5 min
[9] = fresh human blood (volunteers), 7.5 min
[10] = fresh human blood (volunteers), 10 min
[11] = fresh human blood (volunteers), 15 min
[12] = fresh human blood (volunteers), […]
[13] = fresh human plasma (volunteers), 0 min
[14] = fresh human plasma (volunteers), 5 min
[15] = fresh human plasma (volunteers), 7.5 min
[16] = fresh human plasma (volunteers), 10 min
[17] = fresh human plasma (volunteers), 15 min
[18] = fresh human plasma (volunteers), […]
[19] = oral dose 1 h later, read-out: ED50 p.o.
[20] = iv, i.v. dose 1 h later, read-out: ED50 i.v.

Structure (SMILES)	solubility at 18 h [1, 5] [µg/mL]	solubility at 18 h [1, 6] [µg/mL]	Peak Area of pro-drug ([2]; fresh mouse blood, 0 min) [mAU]	Peak Area of pro-drug ([2]; fresh mouse blood, 5 min) [mAU]	Peak Area of pro-drug ([2]; fresh mouse blood, 7.5 min) [mAU]	Peak Area of pro-drug ([2]; fresh mouse blood, 10 min) [mAU]	Peak Area of pro-drug ([2]; fresh mouse blood, 15 min) [mAU]	Peak Area of pro-drug ([2]; fresh mouse blood, […]) [mAU]	Peak Area of pro-drug ([2]; fresh mouse plasma, 0 min) [mAU]	Peak Area of pro-drug ([2]; fresh mouse plasma, 5 min) [mAU]	Peak Area of pro-drug ([2]; fresh mouse plasma, 7.5 min) [mAU]	Peak Area of pro-drug ([2]; fresh mouse plasma, 10 min) [mAU]	Peak Area of pro-drug ([2]; fresh mouse plasma, 15 min) [mAU]	Peak Area of pro-drug ([2]; fresh mouse plasma, […]) [mAU]	Peak Area of pro-drug [3, 7] [mAU]	Peak Area of pro-drug [3, 8] [mAU]	Peak Area of pro-drug [3, 9] [mAU]	Peak Area of pro-drug [3, 10] [mAU]	Peak Area of pro-drug [3, 11] [mAU]	Peak Area of pro-drug [3, 12] [mAU]	other results
COc1c(N2CCC/C(=C(\F)CNC(=O)[C@@H]3CCCN3C(=O)[C@@H](N)CCCCN)C2)c(F)cc2c(=O)c(C(=O)O)cn(C3CC3)c12.Cl.Cl [Compound 15, 1-Cyclopropyl-7-[3-(2-{[(2S)-1-((2S)-2,6-diamino-hexanoyl)-pyrrolidine-2-carbonyl]-amino}-1-fluoro-ethylidene)-piperidin-1-yl]-6-fluoro-8-methoxy-4-oxo-1,4-dihydro-quinoline-3-carboxylic acid dihydrochloride]	> 4600	> 11100	265	75	36	29	17	123	488	106	72	62	22	182	242	23	10	8	6	59	Conversion to the parent compound (summary in words) ([2]; mouse whole blood and plasma): converted to the parent; Peak Area of pro-drug [3, 13]: 330 mAU; Peak Area of pro-drug [3, 14]: 26 mAU; Peak Area of pro-drug [3, 15]: 14 mAU; Peak Area of pro-drug [3, 16]: 10 mAU; Peak Area of pro-drug [3, 17]: 11 mAU; Peak Area of pro-drug [3, 18]: 75 mAU; Conversion to the parent compound (summary in words) [3]: converted to the parent; ED50 [4, 19]: > 13 mg/kg; ED50 [4, 20]: 1.6 mg/kg; Conversion to the parent drug in vivo (in words) (Rat pharmacokinetics): rapidly converted to the parent drug
COc1c(N2CCC/C(=C(\F)CNC(=O)CNC(=O)[C@@H](N)CCC(=O)O)C2)c(F)cc2c(=O)c(C(=O)O)cn(C3CC3)c12.Cl [Compound 16, 7-(3-{2-[2-((2S)-2-Amino-4-carboxy-butyrylamino)-acetylamino]-1-fluoro-ethylidene}-piperidin-1-yl)-1-cyclopropyl-6-fluoro-8-methoxy-4-oxo-1,4-dihydro-quinoline-3-carboxylic acid hydrochloride]	> 3690	> 3360	332	131	99	71	34	174	406	220	178	149	98	285	370	332	342	374	359	336	Conversion to the parent compound (summary in words) ([2]; mouse plasma): converted to an unknown metabolite, but not substantially to the parent drug; Conversion to the parent compound (summary in words) ([2]; mouse whole blood): converted to the parent in mouse whole blood via the intermediacy of a metabolite of unknown identity; Peak Area of pro-drug [3, 13]: 351 mAU; Peak Area of pro-drug [3, 14]: 355 mAU; Peak Area of pro-drug [3, 15]: 366 mAU; Peak Area of pro-drug [3, 16]: 372 mAU; Peak Area of pro-drug [3, 17]: 371 mAU; Peak Area of pro-drug [3, 18]: 350 mAU; Conversion to the parent compound (summary in words) [3]: not measured to convert to the parent drug; ED50 [4, 19]: > 13.9 mg/kg; ED50 [4, 20]: 1.6 mg/kg; Conversion to the parent drug in vivo (in words) (Rat pharmacokinetics): rapidly converted to the parent drug
